This note sets out measurements from patent US20140011977A1, “CHIMERIC MOLECULES TO MODULATE GENE EXPRESSION” (Cold Spring Harbor Laboratory, priority 2000, published 2014).

Assay [1] deals with SMN1 pre-mRNA exon 7. The assay can be described thus: S100 extract complementation in vitro splicing, SMN1 pre-mRNA. The format is biochemical, human. The settings on record: S100 extract complemented with 4 pmol recombinant SR protein, 4 hours. The procedure: (§1) Finally, splicing of SNM1 and SMN2 pre-mRNAs in S100-complementation experiments was used to test the SR protein specificity of the ESEs. S100 extract is a post-nuclear, post-ribosomal fraction capable of supporting in vitro splicing only when complemented with one or more SR proteins. When the SMN pre-mRNAs were incubated in S100 extract alone, spliced products were barely detectable (FIG. 17b, lanes 5-8).
(§2) 5′ capped, T7 runoff transcripts from purified PCR products were uniformly labeled with [α-^32P] UTP, purified by denaturing PAGE, and spliced in HeLa cell nuclear or S100 extracts, as described. Briefly, 10 fmol of transcript was incubated in 12.5-μl standard splicing reactions containing 3 μl of nuclear extract or 2 μl of S100 extract complemented with 4 pmol of recombinant SC35 or SF2/ASF. The MgCl2 concentration was 2.4 mM for BRCA1 transcripts and 1.6 mM for SMN transcripts. After incubation at 30° C. for 4 hours, RNA was extracted and analyzed on 12% (BRCA1) or 8% (SMN) denaturing polyacrylamide gels, followed by autoradiography and phosphorimager analysis. Exon inclusion was calculated as a percentage of the total amount of spliced mRNAs, i.e., included mRNA×100/(included mRNA+skipped mRNA).

Assay [2] relates to SMN2 pre-mRNA exon 7. Nature of the assay: S100 extract complementation in vitro splicing, SMN2 pre-mRNA. The assay is classed as biochemical, human. The procedure: as §1, §2
The test system of assay [3] is β-globin pre-mRNA. Nature of the assay: S100 extract complementation with β-globin pre-mRNA. The format is biochemical. The settings on record: data not shown.

As for “SF2/ASF: recombinant human SR protein SF2/ASF used to complement S100 extract”, the “exon 7 inclusion, SMN1 pre-mRNA” value in assay [1] is recorded as “promoted exon 7 inclusion”. Moreover, in assay [2] (S100 extract complemented with 4 pmol recombinant SR protein, 4 hours), the “exon 7 inclusion, SMN2 pre-mRNA” value is on record as “much less efficiently”. Besides, the “exon 7 inclusion, SMN2 context, high concentrations of SR protein” value in assay [2] (S100 extract, high concentrations, data not shown) was “promoted significant inclusion”.

B1: SC35: recombinant human SR protein SC35 used to complement S100 extract (protein, UniProt Q01130 2-221, looked up)
Serine/arginine-rich splicing …: SYGRPPPDVEGMTSLKVDNLTYRTSPDTLRRVFEKYGRVGDVYIPRDRYTKESRGFAFVRFHDKRDAEDAMDAMDGAVLDGRELRVQMARYGRPPDSHHSRRGPPPRRYGGGGYGRRSRSPRRRRRSRSRSRSRSRSRSRSRYSRSKSRSRTRSRSRSTSKSRSARRSKSKSSSVSRSRSRSRSRSRSRSPPPVSKRESKSRSRSKSPPKSPEEEGAVSS
With B1, the “exon 7 inclusion, SMN1 pre-mRNA” value in assay [1] is reported as “failed to drive exon 7 inclusion”. Besides, the “complementation of S100 extract” value in assay [3] is reported as “efficiently complemented S100 extract”.
